Measured values reported in patent publication US10543199B2, “Macrocycle and composition comprising thereof” (Shenzhen TargetRx, Inc., priority 2016, dated 2020).
pIC50: −log10 of the molar value.

Experiments:
[1] = system: BaF3-NPM-ALK cells (ALK WT); experiment: Cytotoxicity experiments, growth of BaF3-NPM-ALK cells, ALK WT; assay type: cell-based, murine; conditions: two days incubation
Source text: Cytotoxicity Experiments.
The cell line that can be used in the assay is Ba/F3, a murine pro-B cell line that has been stably transfected with the expression vector pClneo™ (Promega Corp., Madison Wis.) encoding NPM-ALK and subsequently G418-resistent cells were selected. The inhibitory activity of the compounds of Formula I can be determined as follows: BaF3-NPM-ALK cells (15000/well in a microtiter plate) were transferred to a 96-well microtiter plate. Test compounds (dissolved in DMSO) were then added in a series of concentrations (serial dilutions) with a final concentration of DMSO not exceeding 1% (v/v). […] The cell lysis was completed at room temperature within 60 minutes and the amount of Yopro bound to the DNA was determined by measurement using, for example, a CytoFluor II 96-well reader (PerSeptive Biosystems). IC50 can be determined by computer aided system using the following formula: IC50=[(ABS test−ABS start)/(ABS control−ABS start)]×100 wherein ABS was absorption.

[2] = system: cancer cells expressing the ALK mutant L1196M; experiment: Cytotoxicity experiments, growth of cells expressing ALK mutant L1196M; assay type: cell-based, murine; conditions: two days incubation
[3] = Metabolic stability in human liver microsomes; assay type: in vitro ADME; conditions: human liver microsomes 0.5 mg/mL, compound 1 μM
Experimental: Metabolic Experiment of Liver Microparticle.
Experiments in microsomes: Human liver microsomes: 0.5 mg/mL, Xenotech; Rat liver microsomes: 0.5 mg/mL, Xenotech; Coenzyme (NADPH/NADH): 1 mM, Sigma Life Science; Magnesium chloride: 5 mM, 100 mM phosphate buffer (pH 7.4).
Preparation of phosphate buffer (100 mM, pH7.4): A pre-formulated 0.5M potassium dihydrogen phosphate (150 mL) was mixed with 0.5M dibasic potassium phosphate (700 mL). The pH of the mixture was adjusted to 7.4 with 0.5M dibasic potassium phosphate solution. The mixture was diluted 5-fold with ultrapure water before use, and magnesium chloride was added to obtain a phosphate buffer (100 mM) containing 100 mM potassium phosphate, 3.3 mM magnesium chloride, pH 7.4.
A NADPH regeneration system solution (containing 6.5 mM NADP, 16.5 mM G-6-P, 3 U/mL G-6-PD, 3.3 mM magnesium chloride) was prepared and placed on wet ice prior to use.
Preparation of stop solution: acetonitrile solution containing 50 ng/mL propranolol hydrochloride and 200 ng/mL tolbutamide (internal standard). 25057.5 μL of phosphate buffer (pH 7.4) was taken into a 50 mL centrifuge tube, to which 812.5 μL human liver microsomes were added, and mixed to obtain a liver microsome dilution solution with a protein concentration of 0.625 mg/mL.
Incubation of the samples: The stock solution of the respective compound was respectively diluted to 0.25 mM with an aqueous solution containing 70% acetonitrile, and used as a working solution, ready for use. 398 μL of the dilution solution of human liver microsomes or rat liver microsome were added to a 96-well incubation plate (N=2), respectively, and 2 μL of 0.25 mM working solution was added and mixed.
Metabolic stability assay: 300 μL of pre-chilled stop solution was added to each well of a 96-well deep well plate and placed on ice as a stop plate. The 96 well incubation plate and NADPH regeneration system were placed in a 37° C. water bath box, shaken at 100 rpm and pre-incubated for 5 min. 80 μL of incubation solution was taken out from each well of the incubation plate and added to the stop plate, mixed, and replenished with 20 μL of NADPH regeneration system solution as a 0-min sample. 80 μL of NADPH regeneration system solution was added to each well of the incubation plate to start the reaction and start counting. […] 100 μL of the supernatant was added to a 96-well plate to which 100 μL of distilled water was previously added, mixed, and analyzed by LC-MS/MS.
Data analysis: The peak areas of the corresponding compound and internal standard were detected by LC-MS/MS system, and the ratio of the peak area of the compound to the internal standard was calculated.

CLint [3] [µL/min/mg] | t1/2 [3] [h] | Structure (SMILES) | pIC50 [1] | pIC50 [2]
– | – | CC1Oc2cc(cnc2N)-c2c(nn(C)c2C#N)CN(C)C(=O)c2ccc(F)cc21 (racemic) [Compound 72] | > 9.00 | 7.00 to 9.00
– | – | CC1Oc2cc(cnc2N)-c2c(nn(C)c2C#N)CN(C)C(=O)c2ccc(F)cc21 (stereo not drawn) [Compound 18] | > 9.00 | 7.00 to 9.00
– | – | CC1Oc2cc(cnc2N)-c2c(nn(C)c2C#N)CN(C)C(=O)c2ccc(F)cc21 (stereo not drawn) [Compound 28] | > 9.00 | 7.00 to 9.00
9.7 | 2.377 | [2H]C([2H])([2H])n1nc2c(c1C#N)-c1cnc(N)c(c1)OC(C)c1cc(F)ccc1C(=O)N(C)C2 (stereo not drawn) [Compound 28] | – | –
– | – | CC1Oc2cc(cnc2N)-c2c(nn(C)c2C#N)CN(C)C(=O)c2ccc(F)cc21 (stereo not drawn) [Compound 45] | > 9.00 | 7.00 to 9.00
– | – | CC1Oc2cc(cnc2N)-c2c(nn(C)c2C#N)CN(C)C(=O)c2ccc(F)cc21 (stereo not drawn) [Compound 58] | > 9.00 | 7.00 to 9.00
– | – | CC1Oc2cc(cnc2N)-c2c(nn(C)c2C#N)CN(C)C(=O)c2ccc(F)cc21 (stereo not drawn) [Compound 76] | > 9.00 | 7.00 to 9.00
11.8 | 1.952 | C[C@H]1Oc2cc(cnc2N)-c2c(nn(C)c2C#N)CN(C)C(=O)c2ccc(F)cc21 [PF-06463922, reference compound] | > 9.00 | 7.00 to 9.00
